Assay results reported in patent US20180153826A1, “MATERIALS AND METHODS FOR THE TREATMENT OF CYSTIC FIBROSIS” (UNIVERSITY OF FLORIDA RESEARCH FOUNDATION, INC., priority 2015, published 2018).

What was measured:
SCFA/HCO3^− exchange = SCFA/HCO3^− exchange activity (isobutyrate-dependent HCO3^− secretion); set-up: species or system rat; conditions: 10 μM serosa; 25 mM isobutyrate lumen
Method: (§1) Stripped mucosal sheets were mounted into Ussing chambers (window area=0.3-0.5 cm^2, Physiologic Instruments, San Diego, Calif.). The mucosal side of tissue was bathed with an unbuffered HCO3^−-free Cl^− Ringer solution (see Table 2 for detailed composition) circulated by a gas lift with 100% O2 while the serosal side was bathed with buffered Cl^− Ringer solution (pH 7.4) that contained 25 mM HCO3^− and gassed with 5% CO2/95% O2. Each side contained 3-5 ml of solution and the temperature of the solution was adjusted to and maintained at 37° C. by heated water-jacketed reservoirs. […]
(§2) Two types of approaches were used in the measurement of colonic HCO3^− secretion, namely, measurement of lumen pH or pH stat titration of net alkalinization by colonic mucosa. […] The amount of the acid delivered per unit time per surface area was used to quantitate HCO3^− secretion by the mucosa. Measurements were recorded continuously and mean values for consecutive 5 or 10 min periods were averaged. The rate of HCO3^− secretion (JHCO3) is expressed as μEq/hr/cm^2. The short-circuit current (Isc) was measured in microamperes (μA) and converted into μEq/hr/cm^2. Tissue resistance (R, Ω cm^2) was calculated from Ohm's law.
SCFA/HCO3^− exchange activity was calculated as ΔJHCO3 (the difference between JHCO3 in the presence minus absence of luminal isobutyrate).

[1] = tested on: colon mucosa of wild type mice; experiment: HCO3^− secretion in colon mucosa of wild type (CaSR^+/+) mice; set-up: species or system mouse
Method: FIGS. 13A-13F. […] Colonic mucosa from wild type (CaSR^+/+) (A-C) and knockout (CaSR^-/-) mice (D-F) were isolated and treated, and activities of the three HCO3^- transporters assayed as in rats. Data are means±SEM of 4-6 experiments. *p<0.05 vs. control (1st bar). Experiments were performed using non-fasting male Sprague-Dawley rats and C57BL/6 mice. Rats weighting 100-400 g were obtained from Charles River Laboratories. Mice lacking CaSR expression in intestinal epithelial cells (CaSR^-/-) and their CaSR^+/+ littermates were bred and maintained. CaSR^-/- mice were generated as previously described. Briefly, CaSR flox/flox mice were bred with transgenic mice expressing Cre Recombinase under the control of the villin 1 promoter and genotyped prior to all experiments after an approximate 10-12 generations. Mice were used at 5-10 weeks of age. Animals were fed and maintained on regular chow (Harlan) with free access to water before sacrifice. Animals were sacrificed with standard CO2 inhalation followed by cervical dislocation. The colons were isolated, cut open along the mesenteric border into a flat sheet, and flushed with ice-cold Ringer solutions. Mucosa from the distal colon were carefully hand-stripped off of serosal, muscular and submucosal layers as described and a pair of adjacent mucosal segments were incised and mounted into Ussing chambers. In some experiments, stripped mucosa was incised longitudinally into two equal pieces in order to facilitate comparisons between control and treatment. […] To verify that the effects of […] occurred via the CaSR, additional studies on the effect of […] were performed in intestinal epithelium-specific CaSR knockout mice (FIG. 13). Intestinal epithelium-specific CaSR knockout mice were used together with their wild type littermates.

Cl^−/HCO3^− exchange = Cl^−/HCO3^− exchange activity (Cl^−-dependent HCO3^− secretion); set-up: species or system rat; conditions: 10 μM, added to serosal side
Method: as §1
as §2, with “law. […]” for “law.”

[2] = tested on: CFTR-mediated and non CFTR-mediated HCO3^− secretion; experiment: Isc and pH stat HCO3^− secretion with/without lumen Cl^−, CFTR inhibitors or DIDS (FIGS. 5, 6)
Description: FIG. 3. Experimental approach 1: The Ussing chamber pH-stat set up used to monitor and measure HCO3^- secretion by colonic mucosa. FIG. 4. Experimental Approach 2: Measurement of HCO3^- secretion by colonic mucosa in the presence of apical NPPB/Glibenclamide. FIGS. 5A-5F. Activation of CaSR by […] inhibits CFTR-mediated HCO3^- secretion (JHCO3) and ISC but stimulates non CFTR-mediated HCO3^- secretion (JHCO3) and Isc. Physiological approach assayed with, versus without, lumen Cl^-. FIGS. 6A-6F. Activation of CaSR by […] inhibits CFTR-mediated HCO3^- secretion (JHCO3) and ISC but stimulates CFTR-independent HCO3^- secretion (JHCO3) and Isc. Pharmacological approach assayed with, and without, CFTR transporter inhibitors or AE inhibitor DIDS.

[3] = tested on: HCO3^− secretion by colonic mucosa; experiment: Acid-induced HCO3^− secretion (lumen pH recovery); set-up: species or system rat; conditions: 10 μM, serosa
Method: as §1
as §2, with “law. […]” for “law.”

## COc1cccc([C@@H](C)NCCCc2ccccc2Cl)c1.Cl [R568, 2-Chloro-N-[(1R)-1-(3-methoxyphenyl)ethyl]-benzenepropanamine hydrochloride]
SCFA/HCO3^− exchange
  isobutyrate-dependent HCO3^− secretion: significantly stimulated
[1]
  Cl^−-dependent HCO3^− secretion: stimulated
  SCFA-dependent HCO3^− secretion: stimulated
  cAMP-dependent HCO3^− secretion: inhibited
Cl^−/HCO3^− exchange
  Cl^−/HCO3^− exchange activity: stimulation
[2]; absence of lumen Cl^−
  HCO3^− secretion (pH stat): net inhibition
  phase I Isc stimulation induced by R568: abolished
  phase II Isc inhibition: remained unchanged or slightly reduced
[2]; presence of lumen Cl^−
  HCO3^− secretion (pH stat): net stimulation
  Isc response: two-phase response
[3]
  acid-induced HCO3^− secretion (pH recovery rate): transient but significant stimulation
